Assay results reported in patent publication US5114937A, “Renin inhibiting nonpeptides” (Warner-Lambert Company, priority 1989, dated 1992).

Target: T1, renin (Homo sapiens, UniProt P00797)
T1 sequence (P00797 67-406): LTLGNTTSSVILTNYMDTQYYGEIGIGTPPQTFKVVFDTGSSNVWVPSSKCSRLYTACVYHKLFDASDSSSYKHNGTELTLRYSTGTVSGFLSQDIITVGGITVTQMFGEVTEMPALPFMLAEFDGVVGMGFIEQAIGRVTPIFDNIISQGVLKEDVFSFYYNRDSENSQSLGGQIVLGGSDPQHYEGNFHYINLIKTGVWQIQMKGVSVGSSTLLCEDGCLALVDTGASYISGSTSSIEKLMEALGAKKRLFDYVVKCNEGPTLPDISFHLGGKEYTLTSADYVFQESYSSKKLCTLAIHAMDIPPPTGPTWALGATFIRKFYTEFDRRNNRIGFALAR
Test: in vitro renin inhibitory activity, radioimmunoassay for angiotensin I
Format: biochemical
Conditions: for In Vitro Activity, percent inhibition: 2 hours at 37°; for IC50: renin incubated 2 hours at 37° with angiotensinogen, values marked * = IC50, read-out: In Vitro Activity, IC50 (molar concentration causing a 50% inhibition of the renin activity)
Procedure: The effectiveness of the aforementioned compounds is determined by a test for in vitro renin inhibitory activity. This activity is determined by a standard radioimmunoassay for angiotensin I. ln this assay the enzyme, renin, incubated for 2 hours at 37° in the presence of a substrate, angiotensinogen, generates the product, angiotensin I. Test compounds are added to the incubation mixture. Relative activity is reported as the percent inhibition at the specified molar concentration or as the IC50, which is the molar concentration of test compound causing a 50% inhibition of the renin activity.

[1] = @ 10^-6 (molar; also 1 × 10^-6)

Structure (SMILES)	IC50 [nM]	other results
CC(C)C[C@H](O)[C@H](O)[C@H](CC1CCCCC1)NC(=O)CC1OC1[C@H](Cc1ccccc1)NC(=O)OC(C)(C)C (stereo partly drawn)		In Vitro Activity, percent inhibition (@ 1 × 10^-8 (molar)): 21%
CC(C)C[C@H](O)[C@H](O)[C@H](CC1CCCCC1)NC(=O)CCC(O)[C@H](Cc1ccccc1)NC(=O)OC(C)(C)C (mixture of isomers) [BOCPHE.psi.[CHOHCH2 ]GLYCAD (Mixture of Diastereomers), BOC-PHE.PSI.[CHOHCH2 ]GLY-CAD (Mixture of Diastereomers)]	30	
CC(C)C[C@H](O)[C@H](O)[C@H](CC1CCCCC1)NC(=O)CCC(O)[C@H](Cc1ccccc1)NC(=O)OCc1ccccc1 (mixture of isomers) [ZPHE.psi.[CHOHCH2 ]GLYCAD (Mixture of Diastereomers), Z-PHE.PSI.[CHOHCH2 ]GLY-CAD (Mixture of Diastereomers)]	240	
CC(C)C[C@H](O)[C@H](O)[C@H](CC1CCCCC1)NC(=O)CCC(O)[C@H](Cc1ccccc1)NC(=O)OC(C)(C)C (single isomer, unassigned) [BOCPHE.psi.[CHOHCH2 ]GLYCAD (Slow Eluting Diastereomer), BOC-PHE.PSI.[CHOHCH2 ]GLY-CAD (Slow Isomer)]	15	
CC(C)C[C@H](O)[C@H](O)[C@H](CC1CCCCC1)NC(=O)CCC(O)[C@H](Cc1ccccc1)NS(=O)(=O)N1CCOCC1 (single isomer, unassigned) [SMOPHE.psi.[CHOHCH2 ]GLYCAD (Isomer A), SMO-PHE.PSI.[CHOHCH2 ]GLY-CAD (Isomer A)]	2.3	
CC(C)C[C@H](O)[C@H](O)[C@H](CC1CCCCC1)NC(=O)CCC(O)[C@H](Cc1ccccc1)NS(=O)(=O)N1CCOCC1 (single isomer, unassigned) [SMOPHE.psi.[CHOHCH2 ]GLYCAD (Isomer B), SMO-PHE.PSI.[CHOHCH2 ]GLY-CAD (Isomer B)]	17	
CC(C)C[C@H](O)[C@H](O)[C@H](CC1CCCCC1)NC(=O)CCC(O)[C@H](Cc1ccccc1)NC(=O)OCc1ccccc1 (single isomer, unassigned) [ZPHE.psi.[CHOHCH2 ]GLYCAD (Slow Eluting Diastereomer), Z-PHE.PSI.[CHOHCH2 ]GLY-CAD (Slow Isomer)]	200	
CC(C)C[C@H](O)[C@H](O)[C@H](CC1CCCCC1)NC(=O)C(N)CC(O)[C@H](Cc1ccccc1)NC(=O)OC(C)(C)C (single isomer, unassigned) [drawing 42, BOC-PHE.PSI.[CHOHCH2 ]CH(NH2)CO-CAD]		In Vitro Activity, percent inhibition [1]: 45%
CC(C)C[C@H](O)[C@H](O)[C@H](CC1CCCCC1)NC(=O)C(N)CC(O)[C@H](Cc1ccccc1)NC(=O)OC(C)(C)C (single isomer, unassigned) [drawing 43, BOC-PHE.PSI.[CHOHCH2 ]CH(NH2)CO-CAD]		In Vitro Activity, percent inhibition [1]: 26%
CC(C)C[C@H](O)[C@H](O)[C@H](CC1CCCCC1)NC(=O)C/C=C/[C@H](Cc1ccccc1)NC(=O)OC(C)(C)C [BOCPHE.psi.[CHCH]GLYCAD, BOC-PHE.PSI.[E-CH=CH]GLY-CAD]		In Vitro Activity, percent inhibition (@ 3 × 10^-8 (molar)): 1%
CC(C)C[C@H](O)[C@H](O)[C@H](CC1CCCCC1)NC(=O)CCC(O)[C@@H](N)Cc1ccccc1 (stereo partly drawn) [PHE.psi.[CHOHCH2 ]GLYCAD]		In Vitro Activity, percent inhibition [1]: 28%
CC(C)C[C@H](O)[C@H](O)[C@H](CC1CCCCC1)NC(=O)CNC[C@H](Cc1ccccc1)NS(=O)(=O)N1CCOCC1 [SMOPHE.psi.[CH2 NH]GLYCAD, SMO-PHE.PSI.[CH2 NH]GLY-CAD]	2600	
CC(C)C[C@H](O)[C@H](O)[C@H](CC1CCCCC1)NC(=O)C=CC(O)[C@H](Cc1ccccc1)NS(=O)(=O)N1CCOCC1 (stereo partly drawn) [SMOPHE.psi.[CHOHCHCHCO]CAD, SMO-PHE.PSI.[CHOHCH=CHCO]CAD]	25	
CC(C)C[C@H](O)[C@H](O)[C@H](CC1CCCCC1)NC(=O)CCC(=O)[C@H](Cc1ccccc1)NS(=O)(=O)N1CCOCC1 [SMOPHE.psi.[COCH2 ]GLYCAD, SMO-PHE.PSI.[COCH2]GLY-CAD]	87	
CC(C)C[C@H](O)[C@H](O)[C@H](CC1CCCCC1)NC(=O)CCC(=O)[C@H](Cc1ccccc1)NC(=O)OCc1ccccc1 [ZPHE.psi.[COCH2 ]GLYCAD, Z-PHE.PSI.[COCH2]GLY-CAD]		In Vitro Activity, percent inhibition (@ 1 × 10^-8 (molar)): 1%
